Measurements taken from patent US10940139B2, “Compounds that interact with the Ras superfamily for the treatment of cancers, inflammatory diseases, rasopathies, and fibrotic disease” (Shy Therapeutics LLC, priority 2017, dated 2021).

Tests used:
[1] = test system: TNFα production in RAW 264.7 macrophage cell line; assay: Mouse TNF alpha quantification assay (LPS-stimulated macrophages, ELISA); format: cell-based; settings: RAW264.7, RAW 264.7 murine leukemia virus transformed macrophage cell lines, LPS stimulation, read-out: TNF-α % Inhibition at 30 μM
[2] = test system: IL6 production in RAW 264.7 macrophage cell line; assay: Mouse IL6 quantification assay (LPS-stimulated macrophages, ELISA); format: cell-based; settings: RAW264.7, RAW 264.7 murine leukemia virus transformed macrophage cell lines, LPS stimulation, read-out: IL-6 % Inhibition at 30 μM

SMILES	inhibition at 30 µM [1] [%]	inhibition at 30 µM [2] [%]
Oc1ccc(C2(c3cccc(Cl)c3)CCCC2)cc1 [drawing 2055]	76 to 100	76 to 100
Cc1ccc(-c2ccc(Oc3ccc(C(F)(F)F)cn3)c(C)c2)cc1 [drawing 2056]	1 to 25	0
CCOc1cc(C(=O)Oc2c(C)ccc(C)c2C)cc(OCC)c1OCC [drawing 2057]	1 to 25	51 to 75
COC(=O)c1ccc(C(=O)NCC2(c3ccccc3OC)CCCC2)nc1 [drawing 2058]	1 to 25	0
CCOc1cc(S(=O)(=O)N(Cc2ccccc2)Cc2ccccc2)c(OCC)cc1C [drawing 2059]	1 to 25	1 to 25
COc1ccc(CN(CC[S+]([O-])c2cc(Cl)ccc2Cl)C2CC2)cc1 (centres unmarked) [drawing 2060]	1 to 25	0
CCCOc1ccc2ccccc2c1CN(C)S(=O)(=O)N1CC(C)OC(C)C1 (centres unmarked) [drawing 2061]	51 to 75	1 to 25
O=S(=O)(Oc1cc(C(F)(F)F)cc(C(F)(F)F)c1)N1CCc2ccccc2C1 [drawing 2062]	0	51 to 75
COC(=O)C(C)CN(Cc1cc(Br)ccc1[N+](=O)[O-])C1CC1 (centres unmarked) [drawing 2063]	0	26 to 50
CC(C1CC1)N(CC(F)(F)F)C(=O)Cc1ccc(-c2ccccc2)cc1 (centres unmarked) [drawing 2064]	1 to 25	1 to 25
COC(=O)C(C)CN(Cc1ccccc1)c1nc(C(F)(F)F)ccc1C#N (centres unmarked) [drawing 2065]	0	26 to 50
CCN(CC)S(=O)(=O)c1ccc(NCCOC)c(C(=O)NCCSCc2ccc(C)cc2)c1 [drawing 2066]	26 to 50	26 to 50
CSc1nc(C2CC2)cc(C(=O)NCCc2ccc(S(=O)(=O)NC(=O)c3cc(C4CC4)nc(SC)c3C#N)cc2)c1C#N [drawing 2067]	26 to 50	1 to 25
CC(C)C1=C(O)C2(CC2c2ccc(-c3ccccc3)cc2)C(C)CC1 (centres unmarked) [drawing 2068]	1 to 25	0
Cc1cccc(C)c1OCCOC(=O)c1ccccc1SCCOc1c(C)cccc1C [drawing 2069]	0	1 to 25
Oc1nc(-c2ccccn2)nc2c1CCCN2 [drawing 2070]	1 to 25	26 to 50
O=C(COc1ccccc1)N1CCCc2c(O)nc(-c3ccccn3)nc21 [drawing 2071]	1 to 25	76 to 100
COc1ccc(COCC(=O)N2CCCc3c(O)nc(-c4ccccn4)nc32)cc1 [drawing 2072]	1 to 25	51 to 75
COc1ccc(CCC(=O)N2CCCc3c(O)nc(-c4ccccn4)nc32)cc1 [drawing 2073]	26 to 50	76 to 100
CN(CC(=O)N1CCCc2c(O)nc(-c3ccccn3)nc21)S(=O)(=O)c1ccccc1 [drawing 2074]	0	1 to 25
O=C(c1ccc2ccccc2n1)N1CCCc2c(O)nc(-c3ccccn3)nc21 [drawing 2075]	1 to 25	76 to 100
O=C(c1ccn(-c2ccccc2)n1)N1CCCc2c(O)nc(-c3ccccn3)nc21 [drawing 2076]	26 to 50	76 to 100
CS(=O)(=O)N1CCCc2cc(C(=O)N3CCCc4c(O)nc(-c5ccccn5)nc43)ccc21 [drawing 2077]	1 to 25	76 to 100
O=C(c1ccc(=O)[nH]n1)N1CCCc2c(O)nc(-c3ccccn3)nc21 [drawing 2078]	1 to 25	76 to 100
CS(=O)(=O)c1cccc(C(=O)N2CCCc3c(O)nc(-c4ccccn4)nc32)c1 [drawing 2079]	0	51 to 75

SMILES	inhibition at 30 µM [1] [%]	inhibition at 30 µM [2] [%]
COCCCC(=O)N1CCCc2c(O)nc(-c3ccccn3)nc21 [drawing 2080]	1 to 25	76 to 100
O=C(c1cocn1)N1CCCc2c(O)nc(-c3ccccn3)nc21 [drawing 2081]	1 to 25	1 to 25
CS(=O)(=O)CCCC(=O)N1CCCc2c(O)nc(-c3ccccn3)nc21 [drawing 2082]	0	26 to 50
O=S(=O)(CCc1ccccc1)N1CCCc2c(O)nc(-c3ccccn3)nc21 [drawing 2083]	0	26 to 50
O=S(=O)(c1ccccc1)N1CCCc2c(O)nc(-c3ccccn3)nc21 [drawing 2084]	1 to 25	0
O=C(OCCc1ccccc1)N1CCCc2c(O)nc(-c3ccccn3)nc21 [drawing 2085]	26 to 50	76 to 100
O=C(CC(c1ccccc1)c1ccccc1)N1CCCc2c(O)nc(-c3ccccn3)nc21 [drawing 2086]	0	26 to 50
O=C(c1ccccn1)N1CCCc2c(O)nc(-c3ccccn3)nc21 [drawing 2087]	1 to 25	1 to 25
O=C(CCCc1cccnc1)N1CCCc2c(O)nc(-c3ccccn3)nc21 [drawing 2088]	1 to 25	76 to 100
Nc1nc(O)c2scc(Br)c2n1 [drawing 2089]	1 to 25	1 to 25
COCC1CCN(C(=O)c2csc3c(O)nc(N)nc23)CC1 [drawing 2090]	1 to 25	1 to 25
CCOCCC1CCN(C(=O)c2csc3c(O)nc(N)nc23)CC1 [drawing 2091]	1 to 25	0
COCCCC1CCN(C(=O)c2csc3c(O)nc(N)nc23)CC1 [drawing 2092]	1 to 25	0
Nc1nc(O)c2scc(C(=O)N3CCC(N4CCOCC4)CC3)c2n1 [drawing 2093]	1 to 25	0
Nc1nc(O)c2scc(C(=O)N3CCC(N4CCCC4=O)CC3)c2n1 [drawing 2094]	0	1 to 25
CCOC(=O)NC1CCN(C(=O)c2csc3c(O)nc(N)nc23)CC1 [drawing 2095]	1 to 25	0
Nc1nc(O)c2scc(C(=O)N(CCO)CCOCCO)c2n1 [drawing 2096]	0	1 to 25
Nc1nc(O)c2scc(C(=O)NCCc3cccnc3)c2n1 [drawing 2098]	1 to 25	1 to 25
COc1cc2c(cc1OC)CCN(C(=O)c1csc3c(O)nc(N)nc13)CC2 [drawing 2099]	1 to 25	1 to 25
Oc1nc(-c2ccccn2)nc2c(Br)csc12 [drawing 2100]	76 to 100	76 to 100
CC1CCN(C(=O)c2csc3c(O)nc(-c4ccccn4)nc23)CC1 [drawing 2101]	0	26 to 50
COCC1CCN(C(=O)c2csc3c(O)nc(-c4ccccn4)nc23)CC1 [drawing 2102]	1 to 25	76 to 100
CCOCCC1CCN(C(=O)c2csc3c(O)nc(-c4ccccn4)nc23)CC1 [drawing 2103]	1 to 25	76 to 100
COCCCC1CCN(C(=O)c2csc3c(O)nc(-c4ccccn4)nc23)CC1 [drawing 2104]	1 to 25	51 to 75
